Data reported in US9163020B2, “Azaindole compounds, synthesis thereof, and methods of using the same” (Global Alliance for TB Drug Development, priority 2013, dated 2015).
Converted amounts (≈) assume the structure as drawn. Like-named read-outs stand apart in the source and are kept apart here.

Key:
Mtb DprE1 Y314H = format: cell-based, Mycobacterium tuberculosis
Mtb DprE1 OE = assay: microbe, parasite or virus in culture; format: cell-based, Mycobacterium tuberculosis
Mtb DprE1 C387G = format: cell-based, Mycobacterium tuberculosis
Mtb DprE1 C387S = format: cell-based, Mycobacterium tuberculosis
[1] = system: Mycobacterium tuberculosis (Mtb) H37Rv ATCC 27294; assay: microbe, parasite or virus in culture; format: cell-based; conditions: read-out: MIC, Mtb H37Rv
[2] = Mycobacterium tuberculosis, DPRE1OE, Table 5, read-out: Mtb DprE1 OE MIC
[3] = Mycobacterium tuberculosis, DPRE1OE, read-out: MIC, Mtb DprE1 OE

Compound | Mtb DprE1 Y314H MIC (Mtb DprE1 Y314H) | MIC (Mtb DprE1 OE; [2]) | Mtb DprE1 C387G MIC (Mtb DprE1 C387G) | Mtb DprE1 C387S (Mtb DprE1 C387S) | MIC, Mtb DprE1 Y314H (Mtb DprE1 Y314H) | MIC (Mtb DprE1 OE; [3]) | MIC ([1]; Mycobacterium tuberculosis) | MIC, Mtb DprE1 C387G (Mtb DprE1 C387G) | MIC, Mtb DprE1 C387S (Mtb DprE1 C387S) | cross-resistance to mutant strain (Tyr314His) (Mtb DprE1 Y314H) | MIC [1] | MIC (Mtb DprE1 OE; read-out: MIC, Mtb DprE1 OE)
COc1cccc(F)c1Cn1cc(C(=O)NCC2CC2)c2ncccc21 [Compound 32, N-(cyclopropylmethyl)-1-(2-fluoro-6-methoxybenzyl)-1H-pyrrolo[3,2-b]pyridine-3-carboxamide] | 200 µM | 50 µM (≈ 17.7 µg/mL) | 0.39 µM | 0.39 µM | – | – | – | – | – | – | – | –
COc1nc2ccc(Br)cc2cc1[C@@H](c1ccccc1)[C@@](O)(CCN(C)C)c1cccc2ccccc12 [TMC207] | – | – | – | – | 0.15 to 0.3 µM | 0.15 µM (≈ 0.0833 µg/mL) | 0.6 µM (≈ 0.333 µg/mL) | 0.15 µM (≈ 0.0833 µg/mL) | 0.3 µM (≈ 0.167 µg/mL) | – | – | –
CC[C@@H](CO)NCCN[C@@H](CC)CO [Ethambutol] | – | – | – | – | 2.0 to 4.0 µM | 2 µM (≈ 0.409 µg/mL) | 2 µM (≈ 0.409 µg/mL) | 4 µM (≈ 0.817 µg/mL) | 2 µM (≈ 0.409 µg/mL) | – | – | –
Cc1ccc(Cn2cc(C(=O)NCCF)c3ncccc32)c(C)c1 [Compound 31, 1-(2,4-dimethylbenzyl)-N-(2-fluoroethyl)-1H-pyrrolo[3,2-b]pyridine-3-carboxamide] | 25 µM | 25 µM (≈ 8.13 µg/mL) | 0.78 µM | 0.78 µM | – | – | – | – | – | – | – | –
CO[C@H]1/C=C/O[C@@]2(C)Oc3c(C)c(O)c4c(O)c(c(/C=N/N5CCN(C)CC5)c(O)c4c3C2=O)NC(=O)/C(C)=C\C=C\[C@H](C)[C@H](O)[C@@H](C)[C@@H](O)[C@@H](C)[C@H](OC(C)=O)[C@@H]1C [Rifampicin] | – | – | – | – | – | 0.003 µM (≈ 0.00247 µg/mL) | – | – | – | – | – | –
CC1COc2c(N3CCN(C)CC3)c(F)cc3c(=O)c(C(=O)O)cn1c23 (centres unmarked) [Ofloxacin, reference compound] | – | – | – | – | – | 0.5 µM (≈ 0.181 µg/mL) | 1 µM (≈ 0.361 µg/mL) | – | – | – | – | –
NNC(=O)c1ccncc1 [Isoniazid] | – | – | – | – | 0.06 µM (≈ 0.00823 µg/mL) | 0.03 µM (≈ 0.00411 µg/mL) | 0.06 µM (≈ 0.00823 µg/mL) | 0.06 µM (≈ 0.00823 µg/mL) | 0.06 µM (≈ 0.00823 µg/mL) | – | – | –
C[C@H]1COC2(CCN(c3nc(=O)c4cc(C(F)(F)F)cc([N+](=O)[O-])c4s3)CC2)O1 [BTZ043] | – | – | – | – | 0.0015 to 0.003 µM | 50 µM (≈ 21.6 µg/mL) | – | >0.1 µM | >0.1 µM | resistance was not observed | 0.003 µM (≈ 0.00129 µg/mL) | –
Clofazimine | – | – | – | – | 0.125 µM | – | – | 0.03 µM | 0.03 µM | – | 0.125 µM | 0.06 µM
COc1ncnc(Cn2cc(C(=O)NCCF)c3ncccc32)c1C [Compound 3, N-(2-fluoroethyl)-1-((6-methoxy-5-methylpyrimidin-4-yl)methyl)-1H-pyrrolo[3,2-b]pyridine-3-carboxamide] | – | – | – | – | >100 µM | 50 µM (≈ 17.2 µg/mL) | – | 0.78 µM (≈ 0.268 µg/mL) | 3.12 µM (≈ 1.07 µg/mL) | – | 3.12 µM (≈ 1.07 µg/mL) | –
COc1c(N2C[C@@H]3CCCN[C@@H]3C2)c(F)cc2c(=O)c(C(=O)O)cn(C3CC3)c12 [Moxifloxacin, reference compound] | – | – | – | – | – | 0.06 µM (≈ 0.0241 µg/mL) | 0.125 µM (≈ 0.0502 µg/mL) | – | – | – | – | –
D-cycloserine | – | – | – | – | 8.0 to 16.0 µM | – | – | 8 µM | 8 µM | – | 8 µM | 8 µM
COc1ncnc(Cn2cc(C(=O)NCCO)c3ncc(C)cc32)c1C [Compound 17, N-(2-hydroxyethyl)-1-((6-methoxy-5-methylpyrimidin-4-yl)methyl)-6-methyl-1H-pyrrolo[3,2-b]pyridine-3-carboxamide] | – | – | – | – | >200 µM | 100 µM (≈ 35.5 µg/mL) | 1.56 µM (≈ 0.554 µg/mL) | 0.78 µM (≈ 0.277 µg/mL) | 0.39 µM (≈ 0.139 µg/mL) | – | – | –
COc1ncnc(Cn2cc(C(=O)NCCF)c3ncc(C)cc32)c1C [Compound 8, N-(2-fluoroethyl)-1-((6-methoxy-5-methylpyrimidin-4-yl)methyl)-6-methyl-1H-pyrrolo[3,2-b]pyridine-3-carboxamide] | – | – | – | – | >200 µM | 6.25 µM (≈ 2.23 µg/mL) | 0.39 µM (≈ 0.139 µg/mL) | 0.39 µM (≈ 0.139 µg/mL) | 0.39 µM (≈ 0.139 µg/mL) | – | – | –
